# Assay results reported in paper PMC6429200, “Synthesis and Broad Antiviral Activity of Novel 2-aryl-isoindolin-1-ones towards Diverse Enterovirus A71 Clinical Isolates” (Molecules, 2019).
# How the values were obtained:
# [1] = Cytotoxicity assay (CPE) on Vero cells; format: cell-based; conditions: African green monkey; Vero cells, 3 days of incubation, Reed–Muench; read-out: CC50
# Experimental: (§1) An in-vitro antiviral assay was established using the Africa monkey kidney cell line Vero which was infected with different EV-A71 clinical isolates (BrCr, H, Shenzhen98 and Jiangsu52). A total of 24 synthetic compounds were initially screened in such an assay to determine their inhibitory effect on virus replication at 3-fold diluted concentrations serial (400~0.18 μM). The 50% effective concentration (EC50) of each compound was calculated according to its inhibitory rate values with the Reed–Muench method. The 50% cytotoxic concentration (CC50) was defined as the concentration that inhibited 50% cellular growth in comparison with the controls. The selectivity index (SI) was calculated as CC50/EC50. […] Generally, the EV-A71 H strain was less sensitive to most of the active compounds as compared to the other virus strains.
# African green monkey kidney (Vero) cells were purchased from the American Type Culture Collection (ATCC) and were cultured in minimum essential medium (MEM) supplemented with 10% fetal bovine serum (FBS) (GIBCO) and antibiotics (100 U/mL penicillin and […] streptomycin) at 37 °C in a 5% CO2 incubator.
# The cytotoxic effects of compounds on Vero cells were detected by the cytopathic effect (CPE) assay. Briefly, cells (3 × 10^4 cells/well) were seeded into 96-well culture plates and incubated overnight. Then, the medium was removed and different concentrations of compounds were applied in triplicate. After 3 days of incubation, the CC50 was defined as the concentration that inhibited 50% cellular growth in comparison with the untreated controls, as calculated by the Reed–Muench method.
# [2] = system: EV-A71 strain H; assay: CPE inhibition assay for anti-EV-A71 in Vero cells, H strain; format: cell-based, Enterovirus 71 (EV-A71); conditions: for H SI: CC50/EC50; for EC50: Enterovirus A, EVA71, Vero cells, 100TCID50, 48 h
# Experimental: as §1
# (§2) EV-A71 strain ShenZhen98 (SZ98) was isolated from the throat swab sample of an HFMD case which occurred in 1998 in China. This was kindly provided by Dr. Qi Jin, Institute of Pathogen Biology, Chinese Academy of Medical Science and Peking Union Medical School, Beijing, China. EV-A71 strains BrCr (VR-1775) and H (VR-1432) were purchased from the ATCC. The EV-A71 strain JS52 was a kind gift from Dr. Xiangzhong Ye, Beijing Wantai Biological Pharmacy Enterprise Co., Ltd. EV-A71 were all passaged in Vero cells.
# (§3) The anti-EV-A71 activity of compounds was determined by the CPE inhibition method. Briefly, cells (3 × 10^4 cells/well) were plated into 96-well culture plates for incubation for 24 h. The medium was then removed and cells were infected with EV-A71 with 100TCID50 (50% tissue culture infective doses) in serum-free medium for 1 h at 37 °C. Then, the unbound viruses were removed and various concentrations of compounds were supplemented and incubated for another 48 h. The EC50 was determined by the Reed–Muench method. The selectivity index was calculated as the ratio of CC50/EC50 [15].
# [3] = system: EV-A71 strain ShenZhen98 (SZ98); assay: CPE inhibition assay for anti-EV-A71 in Vero cells, Shenzhen98 strain; format: cell-based, Enterovirus 71 (EV-A71); conditions: for Shenzhen98 SI: CC50/EC50; for EC50: Enterovirus A, EVA71, Vero cells, 100TCID50, 48 h
# Experimental: as §1, §2, §3
# [4] = system: EV-A71 strain Jiangsu52 (JS52); assay: CPE inhibition assay for anti-EV-A71 in Vero cells, Jiangsu52 strain; format: cell-based, Enterovirus 71 (EV-A71); conditions: for Jiangsu52 SI: CC50/EC50; for EC50: Enterovirus A, EVA71, Vero cells, 100TCID50, 48 h
# Experimental: as §1, §2, §3
# [5] = system: EV-A71 strain BrCr; assay: CPE inhibition assay for anti-EV-A71 in Vero cells, BrCr strain; format: cell-based, Enterovirus 71 (EV-A71); conditions: for BrCr SI: CC50/EC50; for EC50: Enterovirus A, EVA71, Vero cells, 100TCID50, 48 h
# Experimental: as §1, §2, §3
Structure (SMILES),CC50 at 3 days [1] [µM],H SI [2],EC50 [2] [µM],Shenzhen98 SI [3],EC50 [3] [µM],Jiangsu52 SI [4],EC50 [4] [µM],BrCr SI [5],EC50 [5] [µM]
"COc1ccc(N2Cc3ccc(N)cc3C2=O)cc1 [Compound 4, 6-amino-2-(4-methoxyphenyl)isoindolin-1-one]",231,19,11.7 ± 2.1,43,5.27 ± 0.44,40,5.74 ± 0.54,44,5.27 ± 0.44
"COc1ccc(N2Cc3cc(N)ccc3C2=O)cc1 [Compound 5, 5-amino-2-(4-methoxyphenyl)isoindolin-1-one]",159 ± 17.1,,16.2 ± 1.9,17,9.12 ± 0.76,16,9.7 ± 0.76,17,9.12 ± 0.76
"O=C1c2ccccc2CN1c1ccccc1 [Compound A1, 22-phenylisoindolin-1-one]",370 ± 39.8,13,28.7 ± 4.07,47,7.87 ± 0.91,47,7.87 ± 0.91,47,7.87 ± 0.91
"O=C1c2ccccc2CN1c1ccc(F)cc1 [Compound A2, 2-(4-fluorophenyl)isoindolin-1-one]",218 ± 22.3,49,4.43 ± 0.88,49,4.43 ± 0.68,58,3.74 ± 0.8,67,3.23 ± 0.25
"O=C1c2ccccc2CN1c1ccc(Cl)cc1Cl [Compound A5, 2-(2,4-dichlorophenyl)isoindolin-1-one]",68.4 ± 5.72,38,1.81 ± 0.21,49,1.39 ± 0.17,54,1.27 ± 0.01,54,1.27 ± 0.01
"O=C1c2ccccc2CN1c1ccc(-c2ccccc2)cc1 [Compound A6, 2-([1,1’-biphenyl]-4-yl)isoindolin-1-one]",218 ± 22.3,/ (/ represents selectivity index (SI) value of less than 10),,/ (/ represents selectivity index (SI) value of less than 10),,/ (/ represents selectivity index (SI) value of less than 10),,/ (/ represents selectivity index (SI) value of less than 10),
"COc1cc(N2Cc3ccccc3C2=O)cc(OC)c1OC [Compound A8, 2-(3,4,5-trimethoxyphenyl)isoindolin-1-one]",76.5 ± 13.1,/ (/ represents selectivity index (SI) value of less than 10),,/ (/ represents selectivity index (SI) value of less than 10),13 ± 2,/ (/ represents selectivity index (SI) value of less than 10),12.6 ± 2.22,/ (/ represents selectivity index (SI) value of less than 10),12.6 ± 2.22
"O=C1c2ccccc2CN1c1ccc2ccncc2c1 [Compound A9, 2-(isoquinolin-7-yl)isoindolin-1-one]",96.5 ± 9.34,/ (/ represents selectivity index (SI) value of less than 10),,/ (/ represents selectivity index (SI) value of less than 10),17 ± 2.92,/ (/ represents selectivity index (SI) value of less than 10),17 ± 2.92,/ (/ represents selectivity index (SI) value of less than 10),17 ± 2.92
"O=C(O)c1ccc(N2Cc3ccccc3C2=O)cc1 [Compound A10, 4-(1-oxoisoindolin-2-yl)benzoic acid]",46.2,/ (/ represents selectivity index (SI) value of less than 10),13.7 ± 5.71,/ (/ represents selectivity index (SI) value of less than 10),14.6 ± 2.24,/ (/ represents selectivity index (SI) value of less than 10),14.6 ± 2.24,/ (/ represents selectivity index (SI) value of less than 10),12.9 ± 2.24
"CN1CCN(C(=O)c2ccc(N3Cc4ccccc4C3=O)cc2)CC1 [Compound A11, 2-(4-(4-methylpiperazine-1-carbonyl)phenyl)isoindolin-1-one]",115,/ (/ represents selectivity index (SI) value of less than 10),,/ (/ represents selectivity index (SI) value of less than 10),,/ (/ represents selectivity index (SI) value of less than 10),,/ (/ represents selectivity index (SI) value of less than 10),
"O=C(c1ccc(N2Cc3ccccc3C2=O)cc1)N1CCOCC1 [Compound A12, 2-(4-(morpholin-4-carbonyl)phenyl)isoindolin-1-one]",180 ± 27.3,/ (/ represents selectivity index (SI) value of less than 10),24.4 ± 9.37,/ (/ represents selectivity index (SI) value of less than 10),30.3 ± 2.38,/ (/ represents selectivity index (SI) value of less than 10),30.3 ± 2.38,/ (/ represents selectivity index (SI) value of less than 10),27 ± 3.38
"CCCN(CCC)c1ccc2c(c1)C(=O)N(c1ccc(OC)cc1)C2 [Compound B2, 6-(dipropylamino)-2-(4-methoxyphenyl)isoindolin-1-one]",257 ± 35.3,/ (/ represents selectivity index (SI) value of less than 10),,/ (/ represents selectivity index (SI) value of less than 10),34.6 ± 6.54,/ (/ represents selectivity index (SI) value of less than 10),40.3 ± 5.54,/ (/ represents selectivity index (SI) value of less than 10),34.6 ± 6.54
"CCCNc1ccc2c(c1)CN(c1ccc(OC)cc1)C2=O [Compound B3, 2-(4-methoxyphenyl)-5-(propylamino)isoindolin-1-one]",231,/ (/ represents selectivity index (SI) value of less than 10),,13,18.4 ± 2.41,11,20.6 ± 1.01,13,18.4 ± 2.41
"CCCN(CCC)c1ccc2c(c1)CN(c1ccc(OC)cc1)C2=O [Compound B4, 5-(dipropylamino)-2-(4-methoxyphenyl)isoindolin-1-one]",124 ± 12.6,/ (/ represents selectivity index (SI) value of less than 10),,/ (/ represents selectivity index (SI) value of less than 10),,/ (/ represents selectivity index (SI) value of less than 10),,/ (/ represents selectivity index (SI) value of less than 10),
"CCC(=O)Nc1ccc2c(c1)C(=O)N(c1ccc(OC)cc1)C2 [Compound C1, N-(2-(4-methoxyphenyl)-3-oxoisoindolin-5-yl)propionamide]",152 ± 27,/ (/ represents selectivity index (SI) value of less than 10),> 44.4,26,5.85 ± 0.6,25,5.91 ± 0.65,26,5.85 ± 0.6
